In PubChem BioAssay (NCI):
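Growth conditions: 96-well plates. Treatment: test compound, 48 hours, 5 concentrations. Analysis: linear interpolation between bracketing concentrations; unreached endpoints set to highest concentration. TGI is the concentration that stops growth completely.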

Tests used:
Test in all cases: growth of human tumour cells (NCI), 48 h
[1] = test system: SF-268 CNS
[2] = test system: SK-MEL-2 melanoma
[3] = test system: U251 CNS
[4] = test system: SK-OV-3 ovarian
[5] = test system: HOP-18 NSCLC
[6] = test system: SR leukemia
[7] = test system: HCT-116 colon
[8] = test system: LXFL 529 NSCLC
[9] = test system: IGROV1 ovarian
[10] = test system: CAKI-1 renal
[11] = test system: DMS 273 small cell lung
[12] = test system: SW-620 colon
[13] = test system: COLO 205 colon
[14] = test system: RXF 393 renal
[15] = test system: SNB-75 CNS
[16] = test system: M14 melanoma
[17] = test system: NCI-H522 lung
[18] = test system: ACHN renal
[19] = test system: SF-295 CNS
[20] = test system: OVCAR-3 ovarian
[21] = test system: 786-0 renal
[22] = test system: HL-60(TB) leukemia
[23] = test system: NCI-H23 lung
[24] = test system: HCC-2998 colon
[25] = test system: CCRF-CEM leukemia
[26] = test system: SNB-19 CNS
[27] = test system: MALME-3M melanoma
[28] = test system: UACC-62 melanoma
[29] = test system: TK-10 renal
[30] = test system: OVCAR-8 ovarian
[31] = test system: NCI-H226 lung
[32] = test system: UACC-257 melanoma
[33] = test system: K-562 leukemia
[34] = test system: DLD-1 colon
[35] = test system: SK-MEL-5 melanoma
[36] = test system: A549 NSCLC
[37] = test system: XF 498 CNS
[38] = test system: KM20L2 colon
[39] = test system: KM12 colon
[40] = test system: SNB-78 CNS
[41] = test system: OVCAR-5 ovarian
[42] = test system: NCI-H460 lung
[43] = test system: SK-MEL-28 melanoma
[44] = test system: HT29 colon
[45] = test system: LOX IMVI melanoma
[46] = test system: HOP-62 NSCLC
[47] = test system: SF-539 CNS
[48] = test system: M19-MEL melanoma
[49] = test system: MOLT-4 leukemia
[50] = test system: OVCAR-4 ovarian
[51] = test system: SN12C renal
[52] = test system: EKVX NSCLC
[53] = test system: HCT-15 colon
[54] = test system: A498 renal
[55] = test system: UO-31 renal
[56] = test system: HOP-92 NSCLC
[57] = test system: DMS 114 small cell lung
[58] = test system: RPMI-8226 leukemia

## C[O+]=c1cccc2ssnc1-2
[1]
  TGI: > 100 µM
[2]
  TGI: > 100 µM
[3]
  TGI: > 10 µM
[4]
  TGI: > 100 µM
[5]
  TGI: > 100 µM
[6]
  TGI: 64.8 µM
[7]
  TGI: > 100 µM
[8]
  TGI: > 100 µM
[9]
  TGI: > 100 µM
[10]
  TGI: > 100 µM
[11]
  TGI: > 100 µM
[12]
  TGI: 70.6 µM
[13]
  TGI: > 100 µM
[14]
  TGI: > 100 µM
[15]
  TGI: > 100 µM
[16]
  TGI: > 100 µM
[17]
  TGI: > 10 µM
[18]
  TGI: > 100 µM
[19]
  TGI: > 100 µM
[20]
  TGI: > 100 µM
[21]
  TGI: > 100 µM
[22]
  TGI: 69.6 µM
[23]
  TGI: > 100 µM
[24]
  TGI: > 100 µM
[25]
  TGI: > 10 µM
[26]
  TGI: > 100 µM
[27]
  TGI: > 100 µM
[28]
  TGI: 58.8 µM
[29]
  TGI: > 100 µM
[30]
  TGI: 74.1 µM
[31]
  TGI: > 100 µM
[32]
  TGI: 88.5 µM
[33]
  TGI: 91.6 µM
[34]
  TGI: > 100 µM
[35]
  TGI: 58.7 µM
[36]
  TGI: > 100 µM
[37]
  TGI: 43.1 µM
[38]
  TGI: > 100 µM
[39]
  TGI: > 100 µM
[40]
  TGI: > 100 µM
[41]
  TGI: > 100 µM
[42]
  TGI: > 100 µM
[43]
  TGI: > 100 µM
[44]
  TGI: > 100 µM
[45]
  TGI: > 100 µM
[46]
  TGI: > 100 µM
[47]
  TGI: > 100 µM
[48]
  TGI: 69.3 µM
[49]
  TGI: 96.1 µM
[50]
  TGI: > 100 µM
[51]
  TGI: > 100 µM
[52]
  TGI: > 100 µM
[53]
  TGI: > 100 µM
[54]
  TGI: > 100 µM
[55]
  TGI: 98 µM

## CSc1nc2c(nc(N)n2C2OC(CO)C(O)C(O)C2O)c(=O)n1C (stereo not drawn)
[1]
  TGI: > 100 µM
[3]
  TGI: > 100 µM
[4]
  TGI: > 100 µM
[5]
  TGI: > 100 µM
[6]
  TGI: > 100 µM
[7]
  TGI: > 100 µM
[8]
  TGI: > 100 µM
[9]
  TGI: > 100 µM
[10]
  TGI: > 100 µM
[56]
  TGI: > 100 µM
[12]
  TGI: > 100 µM
[13]
  TGI: > 100 µM
[14]
  TGI: > 100 µM
[15]
  TGI: > 100 µM
[16]
  TGI: > 100 µM
[17]
  TGI: > 100 µM
[18]
  TGI: > 100 µM
[19]
  TGI: > 100 µM
[57]
  TGI: > 100 µM
[20]
  TGI: > 100 µM
[21]
  TGI: > 100 µM
[22]
  TGI: > 100 µM
[23]
  TGI: > 100 µM
[24]
  TGI: > 100 µM
[25]
  TGI: > 100 µM
[26]
  TGI: > 100 µM
[27]
  TGI: > 100 µM
[28]
  TGI: > 100 µM
[29]
  TGI: > 100 µM
[30]
  TGI: > 100 µM
[31]
  TGI: > 100 µM
[32]
  TGI: > 100 µM
[33]
  TGI: > 100 µM
[34]
  TGI: > 100 µM
[35]
  TGI: > 100 µM
[36]
  TGI: > 100 µM
[37]
  TGI: > 100 µM
[38]
  TGI: > 100 µM
[39]
  TGI: > 100 µM
[40]
  TGI: > 100 µM
[42]
  TGI: > 100 µM
[43]
  TGI: > 100 µM
[44]
  TGI: > 100 µM
[45]
  TGI: > 100 µM
[46]
  TGI: > 100 µM
[47]
  TGI: > 100 µM
[48]
  TGI: > 100 µM
[49]
  TGI: > 100 µM
[50]
  TGI: > 100 µM
[51]
  TGI: > 100 µM
[52]
  TGI: > 100 µM
[54]
  TGI: > 100 µM
[55]
  TGI: > 100 µM

## O=C(OCc1ccccc1)N1N=NC2C1C1CC(OCc3ccccc3)(OCc3ccccc3)C2O1 (stereo not drawn)
[1]
  TGI: > 100 µM
[2]
  TGI: > 100 µM
[3]
  TGI: > 100 µM
[4]
  TGI: > 100 µM
[5]
  TGI: > 100 µM
[8]
  TGI: > 100 µM
[9]
  TGI: > 100 µM
[10]
  TGI: > 100 µM
[11]
  TGI: > 100 µM
[56]
  TGI: > 100 µM
[12]
  TGI: > 100 µM
[13]
  TGI: > 100 µM
[14]
  TGI: > 100 µM
[15]
  TGI: > 100 µM
[16]
  TGI: > 100 µM
[18]
  TGI: > 100 µM
[19]
  TGI: > 100 µM
[20]
  TGI: > 100 µM
[21]
  TGI: > 100 µM
[22]
  TGI: > 100 µM
[23]
  TGI: > 100 µM
[24]
  TGI: > 100 µM
[25]
  TGI: > 100 µM
[27]
  TGI: > 100 µM
[28]
  TGI: > 100 µM
[31]
  TGI: > 100 µM
[32]
  TGI: > 100 µM
[33]
  TGI: > 100 µM
[34]
  TGI: > 100 µM
[35]
  TGI: > 100 µM
[58]
  TGI: > 100 µM
[36]
  TGI: > 100 µM
[37]
  TGI: > 100 µM
[38]
  TGI: > 100 µM
[39]
  TGI: > 100 µM
[40]
  TGI: > 100 µM
[41]
  TGI: > 100 µM
[42]
  TGI: > 100 µM
[43]
  TGI: > 100 µM
[44]
  TGI: > 100 µM
[45]
  TGI: > 100 µM
[46]
  TGI: > 100 µM
[47]
  TGI: > 100 µM
[48]
  TGI: > 100 µM
[49]
  TGI: > 100 µM
[50]
  TGI: > 100 µM
[51]
  TGI: > 100 µM
[53]
  TGI: > 100 µM
[54]
  TGI: > 100 µM
[55]
  TGI: > 100 µM
